# Laboratory results: patent US7358276B2, “2-Oxo-1-pyrrolidine derivatives, processes for preparing them and their uses” (UCB, S.A., priority 2000, dated 2008)
# Assays:
# [1] = biological target: T1, Levetiracetam Binding Site (LBS), rat cerebral cortex membranes (Rattus norvegicus, UniProt Q02563); test: LBS binding assay (competitive binding, [3H]-2-[4-(3-azidophenyl)-2-oxo-1-pyrrolidinyl]butanamide); conditions: 4° C., 120 min
# T1 construct: The crude membrane pellet obtained is resuspended in 50 mmol/l Tris-HCl (pH 7.4); from tissue; host or cells: rat cerebral cortex crude membranes (male Sprague-Dawley)
# T1 sequence (Q02563 whole entry): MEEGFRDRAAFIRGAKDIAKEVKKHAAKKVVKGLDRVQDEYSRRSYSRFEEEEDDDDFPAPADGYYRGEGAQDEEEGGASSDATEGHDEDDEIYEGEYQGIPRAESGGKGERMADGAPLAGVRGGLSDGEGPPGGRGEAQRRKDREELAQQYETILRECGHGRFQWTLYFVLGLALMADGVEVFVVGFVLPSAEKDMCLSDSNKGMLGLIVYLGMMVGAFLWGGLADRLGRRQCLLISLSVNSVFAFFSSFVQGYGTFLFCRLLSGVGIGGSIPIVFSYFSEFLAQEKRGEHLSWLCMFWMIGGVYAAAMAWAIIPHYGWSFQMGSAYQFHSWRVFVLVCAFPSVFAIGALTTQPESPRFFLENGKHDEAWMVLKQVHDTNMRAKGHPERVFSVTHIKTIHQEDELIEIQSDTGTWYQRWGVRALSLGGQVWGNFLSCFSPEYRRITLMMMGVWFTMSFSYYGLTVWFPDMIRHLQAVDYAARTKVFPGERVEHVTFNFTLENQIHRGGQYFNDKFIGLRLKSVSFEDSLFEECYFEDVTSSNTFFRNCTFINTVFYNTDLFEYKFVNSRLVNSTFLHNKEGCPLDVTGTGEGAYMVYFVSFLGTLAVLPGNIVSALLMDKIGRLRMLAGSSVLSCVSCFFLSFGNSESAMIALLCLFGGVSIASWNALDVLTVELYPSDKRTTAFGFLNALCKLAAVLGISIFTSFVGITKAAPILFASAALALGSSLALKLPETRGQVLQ
# [2] = tested on: audiogenic seizures in sound-susceptible mice; test: Animal model of sound-susceptible mice (audiogenic seizures); format: in vivo; conditions: intraperitoneally 60 minutes before induction of audiogenic seizures; doses given in mol/kg
# Excerpt: The activity of the compounds of formula I, or their pharmaceutically acceptable salts, as anticonvulsants can be determined in the audiogenic seizures model. The objective of this test is to evaluate the anticonvulsant potential of a compound by means of audiogenic seizures induced in sound-susceptible mice, a genetic animal model with reflex seizures. In this model of primary generalised epilepsy, seizures are evoked without electrical or chemical stimulation and the seizure types are, at least in part, similar in their clinical phenomenology to seizures occurring in man (Löscher W. & Schmidt D., Epilepsy Res. (1998), 2, p. 145-181; Buchhalter J. R., Epilepsia (1993), 34, S31-S41). Results obtained with compounds of formula I are indicative of a strong pharmacological effect.
# The objective of this test is to evaluate the anticonvulsant potency of a compound in sound-susceptible mice, a genetic animal model with reflex seizures. In this model of primary generalised epilepsy, seizures are evoked without electrical or chemical stimulation and the seizure types are, at least in part, similar in their clinical phenomenology to seizures occuring in man (Löscher W. & Schmidt D., Epilepsy Res. (1998), 2, 145-181; Buchhalter J. R., Epilepsia (1993), 34, S31-S41).
# Male or female genetically sound-sensitive mice (14-28 g; N=10), derived from a DBA strain originally selected by Dr. Lehmann of the Laboratory of Acoustic Physiology (Paris) and bred in the UCB Pharma Sector husbandry unit since 1978, are used. The experimental design consisted of several groups, one group receiving the vehicle control and the other groups different doses of the test-compound. The compounds are administered intraperitoneally 60 minutes before the induction of audiogenic seizures.
# For testing, the animals are placed in small cages, one mouse per cage, in a sound-attenuated chamber. After a period of orientation of 30 seconds, the acoustic stimulus (90 dB, 10-20 kHz) is delivered for 30 seconds via loudspeakers positioned above each cage. During this interval, the mice are observed and the presence of the 3 phases of the seizure activity namely wild running, clonic and tonic convulsions, is recorded. The proportion of mice protected against wild running, clonic and tonic convulsions, respectively, is calculated.
# For active compounds, an ED50 value, i.e. the dose producing 50% protection relative to the control group, together with 95% confidence limits, was calculated using a Probit Analysis (SAS/STAT® Software, version 6.09, PROBIT procedure) of the proportions of protected mice for each of the 3 phases of the seizure activity.
Compound,pKi (affinity for the levetiracetam binding site) [1],ED50 (dose producing 50% protection against audiogenic seizures) [2]
"2-[4-(2,2-dibromovinyl)-2-oxo-1-pyrrolidinyl]butanamide [Compound 47]",Particular affinity,Particularly promising activity
"CCCC(CN[C@@H](CC)C(N)=O)CC(=O)OCCC12CC3CC(CC(C3)C1)C2.Cl (mixture of isomers) [AA 3, 2-(1-adamantyl)ethyl 3-({[(1S)-1-(aminocarbonyl)propyl]amino}methyl)hexanoate hydrochloride]",,Particularly promising activity
"CCCCOC(=O)CC(CCC)CN[C@@H](CC)C(N)=O.Cl (mixture of isomers) [AA 4, butyl 3-({[(1S)-1-(aminocarbonyl)propyl]amino}methyl)hexanoate hydrochloride]",,Particularly promising activity
"CCCC(CN[C@@H](CC)C(N)=O)CC(=O)OC(C)C.Cl (mixture of isomers) [AA 5, isopropyl 3-({[(1S)-1-(aminocarbonyl)propyl]amino}methyl)hexanoate hydrochloride]",,Particularly promising activity
"CCCC1CC(=O)N([C@@H](CC)C(N)=O)C1 (single isomer, unassigned) [Compound 158]",Particular affinity,Particularly promising activity
"CCCC1CC(=O)N([C@@H](CC)C(N)=O)C1 (single isomer, unassigned) [Compound 159]",Particular affinity,Particularly promising activity
"CC[C@@H](C(N)=O)N1CC(n2cccc2)CC1=O (single isomer, unassigned) [Compound 223, 4-pyrol-pyrrolidin-2-one]",Particular affinity,Particularly promising activity
"CCCC(CN[C@@H](CC)C(N)=O)CC(=O)OCC.Cl (stereo partly drawn) [AA 1, ethyl 3-({[(1S)-1-(aminocarbonyl)propyl]amino}methyl)hexanoate hydrochloride]",,Particularly promising activity
"CCCC(CN[C@@H](CC)C(N)=O)CC(=O)OCC.Cl (stereo partly drawn) [AA 2, ethyl 3-({[(1S)-1-(aminocarbonyl)propyl]amino}methyl)hexanoate hydrochloride]",,Particularly promising activity
"CC[C@@H](C(N)=O)N1CC(CBr)CC1=O (stereo partly drawn) [Compound 8, (2S)-2-[4-(bromomethyl)-2-oxo-1-pyrrolidinyl]butanamide]",Particular affinity,
CC[C@@H](C(N)=O)N1CC(CBr)CC1=O (stereo partly drawn) [Compound 9],Particular affinity,Particularly promising activity
"CC[C@@H](C(N)=O)N1CC(CCl)CC1=O (stereo partly drawn) [Compound 30, (2S)-2-[4-(chloromethyl)-2-oxo-1-pyrrolidinyl]butanamide]",Particular affinity,
"CC[C@@H](C(N)=O)N1CC(COS(=O)(=O)c2ccc(C)cc2)CC1=O (stereo partly drawn) [Compound 31, {1-[(1S)-1-(aminocarbonyl)propyl]-5-oxo-3-pyrrolidinyl}methyl 4-methylbenzenesulfonate]",Particular affinity,
"CC[C@@H](C(N)=O)N1CC(CO[N+](=O)[O-])CC1=O (stereo partly drawn) [Compound 38, {1-[(1S)-1-(aminocarbonyl)propyl]-5-oxo-3-pyrrolidinyl}methyl Nitrate]",Particular affinity,
CCC(C(N)=O)N1CC(CS(=O)(=O)c2ccccc2)CC1=O (stereo not drawn) [Compound 43],Particular affinity,
"CC[C@@H](C(N)=O)N1CC(CN=C=S)CC1=O (stereo partly drawn) [Compound 49, (2S)-2-[4-(isothiocyanatomethyl)-2-oxo-1-pyrrolidinyl]butanamide]",Particular affinity,
"CC[C@@H](C(N)=O)N1CC(c2cccs2)CC1=O (stereo partly drawn) [Compound 72, (2S)-2-[2-oxo-4-(2-thienyl)-1-pyrrolidinyl]butanamide]",Particular affinity,
CC[C@@H](C(N)=O)N1CC(c2ccsc2)CC1=O (stereo partly drawn) [Compound 88],Particular affinity,Particularly promising activity
CC[C@@H](C(N)=O)N1CC(c2ccc(-c3ccccc3)cc2)CC1=O (stereo partly drawn) [Compound 98],Particular affinity,
CCCC1CC(=O)N(C(C)C(N)=O)C1 (stereo not drawn) [Compound 119],Particular affinity,

Compound,pKi (affinity for the levetiracetam binding site) [1],ED50 (dose producing 50% protection against audiogenic seizures) [2]
"CCCC1CC(=O)N(C(CC)C(N)=O)C1 (stereo not drawn) [Compound 127, 2-(2-oxo-4-propyl-1-pyrrolidinyl)butanamide]",Particular affinity,
CCCCCC1CC(=O)N(C(CC)C(N)=O)C1 (stereo not drawn) [Compound 142],Particular affinity,
"CC[C@@H](C(N)=O)N1CC(CC(C)(C)C)CC1=O (stereo partly drawn) [Compound 149, (2S)-2-(4-neopentyl-2-oxo-1-pyrrolidinyl)butanamide]",Particular affinity,
"CCC(C(N)=O)N1CC(CC(F)F)CC1=O (stereo not drawn) [Compound 157, 2-[4-(2,2-difluoroethyl)-2-oxo-1-pyrrolidinyl]butanamide]",Particular affinity,
"CCC(C(N)=O)N1CC(C=C(C)C)CC1=O (stereo not drawn) [Compound 163, 2-(2-oxo-4-(2,2-dimethylvinyl)-1-pyrrolidinyl)butanamide]",Particular affinity,
CCC(C(N)=O)N1CC(c2ccc(Cl)cc2)CC1=O (stereo not drawn) [Compound 169],Particular affinity,
CCC(C(N)=O)N1CC(c2cccc(Cl)c2)CC1=O (stereo not drawn) [Compound 170],Particular affinity,
CCC(C(N)=O)N1CC(c2ccccc2C(F)(F)F)CC1=O (stereo not drawn) [Compound 171],Particular affinity,
CCC(C(N)=O)N1CC(c2ccccc2F)CC1=O (stereo not drawn) [Compound 173],Particular affinity,
CCC(C(N)=O)N1CC(c2cccc(C)c2)CC1=O (stereo not drawn) [Compound 174],Particular affinity,
"CCC(C(N)=O)N1CC(c2cccc(Cl)c2)CC1=O (stereo not drawn) [Compound 204, 2-[4-(3-chlorophenyl)-2-oxo-1-pyrrolidinyl]butanamide]",Particular affinity,
"CCC(C(N)=O)N1CC(c2cccc(Cl)c2)CC1=O (stereo not drawn) [Compound 205, 2-[4-(3-chlorophenyl)-2-oxo-1-pyrrolidinyl]butanamide]",Particular affinity,
"C#CC1CC(=O)N(C(CC)C(N)=O)C1 (stereo not drawn) [Compound 207, 2-(4-ethynyl-2-oxo-1-pyrrolidinyl)butanamide]",Particular affinity,
"CC[C@@H](C(N)=O)N1CC(CC(C)I)CC1=O (stereo partly drawn) [Compound 225, (2S)-2-[4-(2-iodopropyl)-2-oxo-1-pyrrolidinyl]butanamide]",Particular affinity,
"CC[C@@H](C(N)=O)N1CC(CC(C)I)CC1=O (stereo partly drawn) [Compound 226, (2S)-2-[4-(2-iodopropyl)-2-oxo-1-pyrrolidinyl]butanamide]",Particular affinity,
CCCC1CC(=O)N(C(CCC)C(N)=O)C1 (stereo not drawn) [Compound 304],Particular affinity,
CCCC1CC(=O)N(C(CC2CC2)C(N)=O)C1 (stereo not drawn) [Compound 306],Particular affinity,
CCCC1CC(=O)N(C(Cc2cscn2)C(N)=O)C1 (stereo not drawn) [Compound 350],Particular affinity,
C=CCC(C(N)=O)N1CC(CCC)CC1=O (stereo not drawn) [Compound 351],Particular affinity,
